Assay results as given in PMC10548421, “Anticancer Potential of Diruthenium Complexes with Bridging Hydrocarbyl Ligands from Bioactive Alkynols” (Inorganic Chemistry, 2023).
Read-outs that look alike come from different tables or passages of the source.

Assays:
[1] = Stability in DMEM/CH3OH solution (UV–vis); format: physicochemical; settings: ca. 5:1 v/v
Procedure: (§1) […] The percentage of remaining complex in the solution was calculated by considering the change in absorbance at the characteristic wavelength. The identical procedure was employed to evaluate stability in MeOH and DMEM (about 1:5 v/v) solutions. DMEM stands for the cell culture medium (containing 1000 mg/L glucose and L-glutamine, excluding sodium bicarbonate and phenol red; reference D2902-Merck).

[2] = tested on: Caco-2 human colorectal adenocarcinoma cell line; experiment: MTT in vitro cytotoxicity, Caco-2; format: cell-based; settings: for IC50: incubation 24 h, mean ± SD
Procedure: (§2) Additionally, the assessment extended to a normal human fetal fibroblast cell line (MRC-5). Cells were obtained from ATCC collection and cultivated according to the producer’s instructions. Stock solutions of the compounds were prepared in DMF immediately before application, and diluted with H2O to achieve the final concentration of 0.1% v/v DMF.[99] The culture media were enriched with 10% fetal calf serum. Subsequently, the cells were exposed to the tested compounds, vehicle (0.1% v/v DMF) and Triton X-100 (1% v/v), during incubation. The conventional MTT assay was carried out following different incubation periods (Tables 5-6). The absorbance was measured at 570 nm by using a spectrophotometer (Infinite M200, Schoeller Instruments, Prague, Czech Republic). The obtained data are presented as the percentage of cell viability with 100% representing negative control treatment (0.1% v/v DMF) and 0% representing the positive control (Triton X-100). The half-maximal inhibitory concentrations (IC50) were determined from dose–response curves using GraphPad Prism 6 software (GraphPad Software, San Diego, USA).

[3] = tested on: A2780 human ovarian carcinoma cell line; experiment: MTT in vitro cytotoxicity, A2780; format: cell-based
Procedure: as §2, with “The cytotoxicity assessment was conducted on various human cancer cell lines, including A2780 ovarian carcinoma, A2780R cisplatin-resistant ovarian carcinoma, MCF-7 breast, HOS osteosarcoma, A549 epithelial lung, PANC-1 pancreatic, Caco-2 colorectal, PC-3 prostate adenocarcinoma, and HeLa cervical cell lines. Additionally,” for “Additionally,”

[4] = tested on: HeLa human cervical carcinoma cell line; experiment: MTT in vitro cytotoxicity, HeLa; format: cell-based; settings: incubation 24 h, mean ± SD
Procedure: as §2, with “The cytotoxicity assessment was conducted on various human cancer cell lines, including A2780 ovarian carcinoma, A2780R cisplatin-resistant ovarian carcinoma, MCF-7 breast, HOS osteosarcoma, A549 epithelial lung, PANC-1 pancreatic, Caco-2 colorectal, PC-3 prostate adenocarcinoma, and HeLa cervical cell lines. Additionally,” for “Additionally,”

[5] = tested on: PANC-1 human pancreatic carcinoma cell line; experiment: MTT in vitro cytotoxicity, PANC-1; format: cell-based; settings: for IC50: incubation 24 h, mean ± SD
Procedure: as §2, with “The cytotoxicity assessment was conducted on various human cancer cell lines, including A2780 ovarian carcinoma, A2780R cisplatin-resistant ovarian carcinoma, MCF-7 breast, HOS osteosarcoma, A549 epithelial lung, PANC-1 pancreatic, Caco-2 colorectal, PC-3 prostate adenocarcinoma, and HeLa cervical cell lines. Additionally,” for “Additionally,”

[6] = tested on: A549 human lung adenocarcinoma cell line; experiment: MTT in vitro cytotoxicity, A549; format: cell-based; settings: for IC50: incubation 24 h, mean ± SD
Procedure: as §2, with “The cytotoxicity assessment was conducted on various human cancer cell lines, including A2780 ovarian carcinoma, A2780R cisplatin-resistant ovarian carcinoma, MCF-7 breast, HOS osteosarcoma, A549 epithelial lung, PANC-1 pancreatic, Caco-2 colorectal, PC-3 prostate adenocarcinoma, and HeLa cervical cell lines. Additionally,” for “Additionally,”

[7] = tested on: MRC-5 normal human lung fibroblast cell line; experiment: MTT in vitro cytotoxicity, MRC-5 (selectivity); format: cell-based; settings: normal cells, MTT, incubation 24 h, mean ± SD
Procedure: as §2, with “The cytotoxicity assessment was conducted on various human cancer cell lines, including A2780 ovarian carcinoma, A2780R cisplatin-resistant ovarian carcinoma, MCF-7 breast, HOS osteosarcoma, A549 epithelial lung, PANC-1 pancreatic, Caco-2 colorectal, PC-3 prostate adenocarcinoma, and HeLa cervical cell lines. Additionally,” for “Additionally,”

[8] = Stability in H2O/CH3OH solution (UV–vis); format: physicochemical; settings: ca. 5:1 v/v
Procedure: as §1

[9] = Octanol/water partition coefficient, shake-flask with UV–vis; format: physicochemical; settings: 21 °C
Procedure: Partition coefficients (Pow), defined by the formula Pow = corg/caq, wherein corg and caq denote the molar concentrations of the specific compound in octanol and aqueous phases, respectively, were obtained using the shake-flask method with UV–vis measurements, following a previously described procedure (Table 3).[98] All the operations were carried out at 21 ± 1 °C. The wavelength corresponding to the maximum absorption of each compound within the range 350–430 nm was employed for quantifying using UV–vis techniques.

[10] = tested on: A2780R cisplatin-resistant human ovarian carcinoma cell line; experiment: MTT in vitro cytotoxicity, A2780R; format: cell-based; settings: incubation 24 h, mean ± SD
Procedure: as §2, with “The cytotoxicity assessment was conducted on various human cancer cell lines, including A2780 ovarian carcinoma, A2780R cisplatin-resistant ovarian carcinoma, MCF-7 breast, HOS osteosarcoma, A549 epithelial lung, PANC-1 pancreatic, Caco-2 colorectal, PC-3 prostate adenocarcinoma, and HeLa cervical cell lines. Additionally,” for “Additionally,”

[11] = tested on: MCF-7 breast adenocarcinoma cell line; experiment: MTT in vitro cytotoxicity, MCF-7; format: cell-based, human; settings: incubation 24 h, mean ± SD
Procedure: as §2, with “The cytotoxicity assessment was conducted on various human cancer cell lines, including A2780 ovarian carcinoma, A2780R cisplatin-resistant ovarian carcinoma, MCF-7 breast, HOS osteosarcoma, A549 epithelial lung, PANC-1 pancreatic, Caco-2 colorectal, PC-3 prostate adenocarcinoma, and HeLa cervical cell lines. Additionally,” for “Additionally,”

[12] = tested on: HOS human osteosarcoma cell line; experiment: MTT in vitro cytotoxicity, HOS; format: cell-based; settings: incubation 24 h, mean ± SD
Procedure: as §2, with “The cytotoxicity assessment was conducted on various human cancer cell lines, including A2780 ovarian carcinoma, A2780R cisplatin-resistant ovarian carcinoma, MCF-7 breast, HOS osteosarcoma, A549 epithelial lung, PANC-1 pancreatic, Caco-2 colorectal, PC-3 prostate adenocarcinoma, and HeLa cervical cell lines. Additionally,” for “Additionally,”

[13] = tested on: PC-3 human prostate carcinoma cell line; experiment: MTT in vitro cytotoxicity, PC-3; format: cell-based; settings: incubation 24 h, mean ± SD
Procedure: as §2, with “The cytotoxicity assessment was conducted on various human cancer cell lines, including A2780 ovarian carcinoma, A2780R cisplatin-resistant ovarian carcinoma, MCF-7 breast, HOS osteosarcoma, A549 epithelial lung, PANC-1 pancreatic, Caco-2 colorectal, PC-3 prostate adenocarcinoma, and HeLa cervical cell lines. Additionally,” for “Additionally,”

[14] = MTT, incubation 24 h, mean ± SD (Table 5), read-out: IC50 A2780
[15] = time-course experiment (Table 6), 24 h, mean ± SD, read-out: IC50 A2780, incubation time 24 h
[16] = time-course experiment (Table 6), 48 h, mean ± SD, read-out: IC50 A2780, incubation time 48 h
[17] = time-course experiment (Table 6), 72 h, mean ± SD, read-out: IC50 A2780, incubation time 72 h

| Compound | IC50 [2] [µM] | IC50 [3, 14] [µM] | IC50 [3, 15] [µM] | IC50 [3, 16] [µM] | IC50 [3, 17] [µM] | IC50 [4] [µM] | IC50 [5] [µM] | IC50 [6] [µM] | IC50 [7] [µM] | residual complex % in H2O/CH3OH ([8]; 30 min) [%] | residual complex % in H2O/CH3OH ([8]; 18 h) [%] | Log Pow [9] | IC50 [10] [µM] | IC50 [11] [µM] | IC50 [12] [µM] | IC50 [13] [µM] | other results |
| --- | --- | --- | --- | --- | --- | --- | --- | --- | --- | --- | --- | --- | --- | --- | --- | --- | --- |
| [Ru2Cp2(CO)2{μ–η^1:η^3-CH=C(17α-estradiol)C(=O)}] [2b] | > 50 | 6.2 ± 1.2 | 5.8 ± 0.4 | 4.7 ± 0.8 | 4.2 ± 0.6 | 5.5 ± 0.9 | > 50 | > 50 | > 50 | 69 | 0 | >1.5 | 7.3 ± 2.4 | 19 ± 4.5 | 24 ± 3.8 | 36 ± 4.1 | residual complex % in DMEM/CH3OH ([1]; 2 h): 50%; residual complex % in DMEM/CH3OH ([1]; 18 h): 21%; activity toward Caco-2 cells (in words) ([2]; 24 h): inactive; activity toward PANC-1 cells (in words) ([5]; 24 h): inactive; activity toward A549 cells (in words) ([6]; 24 h): inactive |
| Cc1ccc(C(C)C)cc1.[Cl][Ru]([Cl])[PH]12CN3CN(CN(C3)C1)C2 [RAPTA-C, [Ru(η^6-p-cymene)Cl2(pta)], reference compound] | > 50 | > 50 | > 50 | > 50 | > 50 | > 50 | > 50 | > 50 | > 50 |  |  |  | > 50 | > 50 | > 50 | > 50 |  |
| CC12CCC(=O)C=C1CCC1C2CCC2(C)C1CCC2(O)C1=[CH][Ru]2(=[C]=O)([CH]3C=CC=C3)[C](=O)[Ru]2([CH]2C=CC=C2)[C]1=O (centres unmarked) [2c, [Ru2Cp2(CO)2{μ–η^1:η^3-CHC(17-testosterone)C(O)}]] |  |  |  |  |  |  |  |  |  | 99 | 14 | >1.5 |  |  |  |  | residual complex % in H2O/CH3OH ([8]; 2 h): 81% |
